Test results published in publication PMC11111895, “Identification of a dCache-type chemoreceptor in Campylobacter jejuni that specifically mediates chemotaxis towards methyl pyruvate” (Frontiers in Microbiology, 2024).

Assays:
[1] = test system: C. jejuni WT NCTC 11168 cells; format: cell-based, Campylobacter jejuni; conditions: WT NCTC 11168 cells; microfluidic device, 30 min
[2] = test system: Tlp11[1-342]-Tar[200-553] (Tlp342Tar200); test: Microfluidic chemotaxis of E. coli expressing hybrid chemoreceptor Tlp342Tar200; format: cell-based, E. coli VS188; conditions: microfluidic device, 50 min
Procedure: The E. coli cells expressing hybrid chemoreceptor and GFP were grown in tryptone broth, up to an OD600 of 0.55, at 34°C, with shaking at 250 rpm. The cells were harvested by means of centrifugation at 5,000 rpm, washed twice with Tethering Buffer (10 mM KH2PO4, 10 mM K2HPO4, and 0.1 mM EDTA, pH 7.0), and resuspended in Tethering Buffer such that an OD600 of 5.5 was attained. The chemotactic responses of E. coli cells to the compounds were measured using a microfluidic device ([Si et al., 2012]). The collected E. coli cells were added to the sink pores of the device and allowed to freely diffuse into the observation channel for 40 min. Subsequently, the compound solution was added to the source pores, to establish a concentration gradient gradually in the observation channel of the device. Fluorescence intensity in the observation channel was detected using an LSM 800 laser scanning confocal microscope (Zeiss, Germany). Data were analyzed using ImageJ software.
To determine whether methyl pyruvate stimulates transmembrane signaling through Tlp11-LBD, we fused C. jejuni ATCC 33560 Tlp11-LBD with the cytoplasmic region of the E. coli chemoreceptor Tar to construct Tlp11-Tar hybrid chemoreceptors (Figure 3A). Five hybrid receptors with different fusion positions in the second transmembrane helix (TM2) were obtained: Tlp11[1-342]-Tar[200-553] (Tlp342Tar200), Tlp11[1-343]-Tar[200-553] (Tlp343Tar200), Tlp11[1-346]-Tar[204-553] (Tlp346Tar204), Tlp11[1-347]-Tar[204-553] (Tlp347Tar204), and Tlp11[1-348]-Tar[204-553] (Tlp348Tar204) (Supplementary Figure S5A). To verify the activities of these hybrid chemoreceptors, we expressed each protein as a chimera in green fluorescent protein (GFP)-labeled E. coli VS188 without any other chemoreceptors, such that each hybrid receptor served as the only chemoreceptor in the E. coli. […] These chemotactic responses triggered by glucose through the phosphotransferase system are independent of the chemoreceptor LBD ([Neumann et al., 2012]). […] Thus, we used this hybrid receptor for subsequent chemotaxis measurements.

[3] = test system: C. jejuni 11168ΩTlp11/ΔCheY; format: cell-based, Campylobacter jejuni; conditions: 11168ΩTlp11/ΔCheY; microfluidic device
[4] = target: Tlp11-LBD homologue (WP_115552006.1, residues 31-329) (Helicobacter ganmani, UniProt A0A3D8IAJ9); test: MST of Tlp11-LBD homologue; format: binding; conditions: H. ganmani LBD
Procedure: (§1) The His-tag dye (MO-L018 RED-tris-NTA, NanoTemper, Germany) was adjusted to a final concentration of 25 nM and used to label the purified protein with a His-tag. The compound was diluted to a series of concentrations in phosphate-buffered saline ([Duan et al., 2023]) with 0.05% Tween 20 (PBS-T) buffer and mixed in a ratio of 1:1 with protein. The mixtures were loaded into capillaries (Monolith™ Series capillaries, NanoTemper) by means of capillary action. Thermophoresis was measured using a Monolith™ NT.115 (NanoTemper) instrument, with 40% excitation and 40% MST power configuration. The time-traces of changes in fluorescence, which reflected the thermophoretic movement of labeled protein affected by different concentrations of compound were recorded, and the dose–response curves were fitted with the ‘temperature jump and thermophoresis’ mode. Data analysis was performed using MO. Affinity Analysis version 2.3 (NanoTemper) and Prism version 8.0.2 (GraphPad Software, United States).
(§2) To evaluate whether these potential Tlp11-LBD homologues could bind to methyl pyruvate, we conducted a structural analysis of the LBDs of six chemoreceptors from C. coli, H. equorum, H. himalayensis, H. mesocricetorum, H. ganmani, and C. upsaliensis using Alphafold 2. […]

[5] = target: Tlp11-LBD homologue (WP_115570384.1, residues 34-332) (Helicobacter equorum, UniProt A0A3D8ITS8); test: MST of Tlp11-LBD homologue; format: binding
Procedure: as §1, §2

[6] = test system: Tlp11-LBD (residues 32–332 of Tlp11); test: Thermal shift assay (TSA) of Tlp11-LBD; format: binding, C. jejuni ATCC 33560
Procedure: TSA measurements were performed using a quantitative Real-Time PCR System (LightCycler® 480; Roche, United States), to monitor the Tm of the LBD proteins. The compounds listed in Supplementary Table S2 were used as ligand candidates for the high-throughput screening. Each 25 μL mixture for the standard assay contained 20 μM protein, 1–2 mM compound in Buffer C, and SYPRO™ Orange dye (Life Technologies, United States), at 5× concentration. Samples were heated from 26°C to 85°C, with a ramp rate of 1.2°C min^−1, to denature the protein. Protein unfolding curves were recorded by detecting the changes in fluorescence. The Tm values were calculated using first-derivative values (dF/dT) from the raw data.
Fluorescence-based TSA, which has been widely used to discover direct-binding molecules of proteins with high efficiency ([Fernández et al., 2018]), was used to identify the ligand specificity of the C. jejuni chemoreceptor Tlp11. The Tlp11-LBD protein (residues 32–332 of Tlp11) from the strain C. jejuni ATCC 33560 was expressed and purified from E. coli. Hydrophobic reactive dyes were added to the purified protein sample, and the protein was heated to record the change in fluorescence intensity as the temperature increased during the denaturation process of the protein (see Materials and Methods). The melting temperature (Tm) of the target protein was obtained and represented as the midpoint of the protein unfolding transition. Most ligands stabilize the protein during binding, leading to an increase in Tm. Using TSA, we screened a compound library composed of 131 molecules (Supplementary Table S2) that commonly act as microbial carbon and nitrogen sources or metabolites in the human GI tract. Among the compounds in the library, methyl pyruvate elicited the most significant increase in Tm. In the absence of the ligand, the Tm of Tlp11-LBD was 38.3°C, while in the presence of 1 mM methyl pyruvate, the Tm increased by 1.1°C compared to buffer (Figure 1A).

Tlp11-LBD homologue (WP_115552006.1, residues 31-329), sequence (A0A3D8IAJ9 entry or part of it): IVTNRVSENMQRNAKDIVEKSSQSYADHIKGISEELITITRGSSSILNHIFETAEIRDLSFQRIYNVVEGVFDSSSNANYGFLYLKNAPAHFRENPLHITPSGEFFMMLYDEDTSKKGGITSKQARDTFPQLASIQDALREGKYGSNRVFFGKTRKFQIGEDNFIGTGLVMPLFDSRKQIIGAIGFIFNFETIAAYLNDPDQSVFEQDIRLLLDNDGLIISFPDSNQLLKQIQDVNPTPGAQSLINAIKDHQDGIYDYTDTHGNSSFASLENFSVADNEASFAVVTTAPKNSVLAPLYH
Tlp11-LBD homologue (WP_115570384.1, residues 34-332), sequence (A0A3D8ITS8 entry or part of it): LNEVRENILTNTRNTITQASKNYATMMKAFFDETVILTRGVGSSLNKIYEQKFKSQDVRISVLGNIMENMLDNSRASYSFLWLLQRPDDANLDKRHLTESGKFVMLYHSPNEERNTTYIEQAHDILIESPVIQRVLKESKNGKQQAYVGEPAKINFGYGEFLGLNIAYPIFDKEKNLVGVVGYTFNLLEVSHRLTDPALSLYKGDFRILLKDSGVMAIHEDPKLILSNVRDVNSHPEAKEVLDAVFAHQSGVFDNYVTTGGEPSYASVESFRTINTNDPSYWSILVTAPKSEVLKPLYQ

With COC(=O)C(C)=O [methyl pyruvate, Methyl pyruvate] the chemotactic response [1] was “failed to show any chemotaxis”, the “chemotactic response of E. coli expressing Tlp342Tar200 as the sole receptor” value [2] was “strong attractant response” and the chemotactic response [3] was “no chemotaxis”. For the same compound, the Kd [4] was 1600 ± 200 µM, the Kd [5] was 340 ± 43 µM and the “Tm increase of Tlp11-LBD compared to buffer (ΔTm)” value ([6]; 1 mM compound, 20 μM protein) was 1.1 °C. For the same compound, the “ΔTm of Tlp11-LBD” value ([6]; 3 mM compound) was 1.3 °C and the “ΔTm of Tlp11-LBD” value ([6]; 10 mM compound) was 2.8 °C.
